Assay: gradient 5% acetonitrile 3 min, to 50% in 2 min, to 85% in 15 min, held 3 min, 100 µL/min
Settings: column: Zorbax Extend-C18 2.1 x 50 mm; eluents: water / acetonitrile, 0.1% formic acid
How it was run: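 Pure standards were analyzed in mixtures of ~100 molecules using HPLC coupled to a quadrupole time-of-flight mass spectrometer, in both positive and negative ionization mode. Separation used a Zorbax Extend-C18 column (2.1 × 50 mm, 1.8 μm) at 100 μL/min, with water and acetonitrile each containing 0.1% formic acid. Dead and dwell volumes were 40 μL and 900 μL, and data were collected over 3 months. Retention time was read from computationally picked adduct peaks, each inspected manually.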

Row | RP-LC retention time [s] | SMILES
1 | 878 | O=C(CCSc1nnc2ccc3ccccc3n12)Nc1ccc(F)cc1
2 | 649 | CS(=O)(=O)N1CCCN(C(=O)Nc2ccccc2)CC1
3 | 656 | O=C(Cn1nc2c3cc(F)ccc3ncn2c1=O)Nc1ccccc1F
4 | 795 | Cc1ccc(Nc2ncccc2S(N)(=O)=O)cc1
5 | 552 | c1ccc(OCc2cn(CCC3CCCCN3)nn2)cc1 (stereo unspecified)
6 | 752 | O=S(=O)(CCc1ccccc1)N1CCN(c2ccc3nnc(-c4ccco4)n3n2)CC1
7 | 694 | O=C(Nc1ccc(CCc2nc3ccccc3n2-c2ccccc2)cc1)c1cnccn1
8 | 512 | Cc1cc(C)n(CCN2CCN(C(=O)Cn3cnc4ccccc43)CC2)n1
9 | 660 | O=C(NC1CCCCC1)c1nc(-c2ccncc2)cs1
10 | 732 | Cc1cccc(-c2ncccc2CNS(=O)(=O)c2ccccc2Cl)c1
11 | 705 | CCn1cc(CCNC(=O)Nc2c(C)cccc2C)c2cccnc21
12 | 625 | Cc1cc(Nc2cc(N3CCN(C)CC3)nc(/C=C/c3ccccc3)n2)n[nH]1
13 | 736 | Cc1ccc(C)c(NC(=O)Cc2nnc(-c3cnccn3)o2)c1
14 | 798 | Cc1cc(C)c(Nc2ccnc(Nc3ccc(C#N)cc3)n2)c(C)c1
15 | 615 | Cc1nc(NC(=O)C2COCC(=O)N2Cc2ccccc2)sc1C(=O)N(C)C (stereo unspecified)
16 | 1030 | Cc1ccc(NC(=O)c2cc(C)n3nccc3n2)cc1C
17 | 956 | Cc1nccnc1Sc1ccccc1
18 | 604 | Cn1c(=O)c(C(=O)N2CCN(c3ccccn3)CC2)nn(-c2ccccc2)c1=O
19 | 602 | O=C(NCc1ccccn1)C1CCN(C(=O)c2ncn3c2COC(c2ccccc2)C3)CC1 (stereo unspecified)
20 | 838 | COCc1cc2nn(CC(=O)Nc3ccc(C)cc3)c(=O)n2c(-c2ccccc2)n1
21 | 1170 | Brc1ccc(C(c2nnc(-c3ccccc3)o2)N2CCN(c3ncccn3)CC2)cc1 (stereo unspecified)

Continued, compound first:

Row | SMILES | RP-LC retention time [s]
22 | Cc1ccc(NC(=O)N2CCc3c(c(-c4nc(C5CC5)no4)nn3C)C2)c(C)c1 | 834
23 | CC(C)OC(=O)Cn1nc2ccc(S(=O)(=O)N3CCSCC3)cn2c1=O | 829
24 | CCc1ccc(-c2ccc(=O)n(Cc3nc(-c4ccc5c(c4)OCO5)no3)n2)cc1 | 1080
25 | CCCNC(=O)C1CCN(c2nc3ccc(-c4ccccc4F)nc3s2)CC1 | 951
26 | C=C1C[C@@]23CC[C@H]4[C@@](C)(CCC[C@@]4(C)C(=O)O)[C@@H]2CC[C@]1(O)C3 | 1030
27 | CCOc1ccc(NC(=O)Cc2csc3nc(-c4ccc(C)c(C)c4)cn23)cc1 | 903
28 | Cc1ccc(Cn2c(N3CCCC(C(=O)NCCC(C)C)C3)nc3ccsc3c2=O)cc1 (stereo unspecified) | 1030
29 | CCOCCOC1CCN(S(=O)(=O)c2ccc(OC)cc2)CC1 | 831
30 | CC(=O)N1c2ccc(S(=O)(=O)N(C)CC(=O)N3CCN(c4ccccn4)CC3)cc2CC1C (stereo unspecified) | 590
31 | COc1ccc(CCNC(=O)N2CCC(c3nnc(C(F)(F)F)o3)CC2)cc1 | 764
32 | O=C1C2N=NN(Cc3nc(-c4ccc(Br)cc4)no3)C2C(=O)N1c1cccc(F)c1 (stereo unspecified) | 1080
33 | O=C(CCC1CCCC1)N1CCN(c2nnc3c(Cl)cccn23)CC1 | 691
34 | CCc1ccc(-n2ncc3c(=O)n(Cc4nc(-c5ccc(SC)cc5)no4)cnc32)cc1 | 1210
35 | CCCC1=C(C(=O)OCC)C(c2ccccc2OC)NC(=O)N1 (stereo unspecified) | 797
36 | CCN1CCn2cc(S(=O)(=O)N3CCN(c4cccc(C)c4)CC3)cc2C1=O | 858
37 | CC(C)NC(=O)c1ccc(OCC2CCCN(C(=O)C3(c4ccccc4)CC3)C2)cc1 (stereo unspecified) | 940
38 | COc1cc(NC(=O)c2cnn(-c3ccc(Br)cc3)c2)cc(OC)c1OC | 931
39 | Cc1nc(-c2cn(C(C)C)c3ncccc23)sc1C(=O)Nc1ccc2c(c1)OCO2 | 998
40 | O=C(Cn1c(-c2cccs2)cc2cc(F)ccc21)NCCN1CCOCC1 | 680
41 | O=C1CCc2cc(NC(=O)c3ccc([N+](=O)[O-])cc3Cl)ccc2N1 | 807
42 | O=C(C1CCC1)N1[C@H]2CC[C@@H]1c1cnc(-c3ccccc3)nc1C2 | 876
43 | CCC1CN2C=NC(N3CCN(C(=O)Nc4ccccc4Cl)CC3)=CC2=N1 (stereo unspecified) | 814
44 | O=C(NC1CC1)c1ccc(N2CCC(NCc3cc(F)ccc3O)C2)nc1 (stereo unspecified) | 544

Row | SMILES | RP-LC retention time [s]
45 | CCCn1nc2n(c1=O)CCN(Cc1cn[nH]c1-c1ccc(C)c(C)c1)C2 | 644
46 | CN1CC(=O)N(CC(=O)N2CCN(c3ccc(Cl)cc3)CC2)c2ccccc2C1=O | 746
47 | Cc1cc(C)c(C(=O)N2CCC(CC(=O)NCc3ccc4c(c3)OCO4)CC2)[nH]1 | 724
48 | COc1ccc2c(c1OC)C(=O)O[C@@H]2[C@H]1c2cc3c(cc2CCN1C)OCO3 | 660
49 | CCOCCCNC(=O)N1CC(Oc2ccc(-c3nc(C)no3)cc2)C1 | 724
50 | Cc1ccc(NC(=O)c2ncn3c2C(=O)N(C2CC2)C(C)(C(=O)NC2CCCC2)C3)c(Cl)c1 (stereo unspecified) | 864
51 | O=C(NC1CCCCC1)NC1CCN(C(=O)C2CCC2)C1 (stereo unspecified) | 680
52 | CCc1ccc(-c2cc(C(F)(F)F)on2)cc1S(=O)(=O)N1CCCCC1CC (stereo unspecified) | 749
53 | O=C(NCCc1cccs1)c1cccc2[nH]cc(CN3CCOCC3)c12 | 592
54 | O=C(Cn1nc2n(c1=O)CCCCC2)Nc1cccc(Cl)c1 | 730
55 | Cc1ccn2c(Nc3ccc4c(c3)OCCO4)c(-c3cccc(Br)c3)nc2c1 | 739
56 | O=C(NC1CC1)C1CCCN(c2nc3ncn(CC(=O)N4CCc5ccccc5C4)c(=O)c3s2)C1 (stereo unspecified) | 689
57 | O=C(c1ccc(F)c(Cl)c1)N1CCN(c2cc(-c3cccs3)[nH]n2)CC1 | 800
58 | CCOC(=O)c1sc(NC(=O)C2CC(=O)N(c3n[nH]c4ccccc34)C2)nc1C (stereo unspecified) | 750
59 | CC(C)NC(=O)Nc1cc2c(cc1N1CCOCC1)n(C)c(=O)n2C | 634
60 | CC(=O)c1cccc(Nc2c(C(=O)N3CCCC3)cnc3nc(C)ccc23)c1 | 587
61 | COc1ccc(-c2nnc(N3CCC(C(=O)N4CCN(c5ccccc5)CC4)CC3)o2)cc1 | 859
62 | COc1ccc(S(=O)(=O)Nc2ccc(-c3cn4ccc(C)nc4n3)cc2)c(C)c1C | 715
63 | COc1cccc(CNC(=O)C2(C)CCCN(C(=O)Nc3ccccc3C(F)(F)F)C2)c1 (stereo unspecified) | 934
64 | CS(=O)(=O)N1C[C@H]2CCN(Cc3ccc(F)cc3F)C[C@H]21 | 584
65 | O=C(NCc1ccc(Cl)cc1)C1CC(=O)N(CCc2c[nH]c3ccc(F)cc23)C1 (stereo unspecified) | 802
66 | CCOC(=O)c1noc2ncnc(Nc3cc(F)ccc3F)c12 | 799
